Reference: US20100056526A1, “HETEROMONOCYCLIC COMPOUND AND USE THEREOF” (Takeda Pharmaceutical Company Limited, priority 2006, published 2010)

What was measured:
[1] = target: T1, PPARγ (Homo sapiens, UniProt P37231); assay: Evaluation of PPARγ activating action (luciferase reporter in PPARγ:RXRα:4ERPP/CHO-K1 cells); type: cell-based; details: CHO-K1, 24 h; test compound 10^−6 M; luciferase activity relative to control compound X (1 μM) = 100%, non-administration group = 0%; read-out: PPARγ activating action (activation % (10^−6 M))
T1 construct: expressed in transfected cells; host or cells: CHO-K1
T1 sequence (P37231 1-477 isoform P37231-2): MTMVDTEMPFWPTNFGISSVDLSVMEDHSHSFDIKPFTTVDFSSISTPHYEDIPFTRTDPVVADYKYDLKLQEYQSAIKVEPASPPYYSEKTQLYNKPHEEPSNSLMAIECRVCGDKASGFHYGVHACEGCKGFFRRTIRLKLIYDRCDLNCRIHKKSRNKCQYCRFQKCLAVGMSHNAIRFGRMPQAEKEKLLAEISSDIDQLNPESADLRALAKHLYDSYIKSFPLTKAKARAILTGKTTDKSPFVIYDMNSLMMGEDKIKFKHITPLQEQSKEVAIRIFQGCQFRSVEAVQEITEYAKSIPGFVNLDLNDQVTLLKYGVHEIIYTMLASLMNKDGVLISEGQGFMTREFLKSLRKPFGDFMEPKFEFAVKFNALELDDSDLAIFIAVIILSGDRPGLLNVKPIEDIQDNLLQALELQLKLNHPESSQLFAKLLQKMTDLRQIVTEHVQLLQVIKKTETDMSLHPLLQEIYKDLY
T1 sequence (P19793 1-462 partner): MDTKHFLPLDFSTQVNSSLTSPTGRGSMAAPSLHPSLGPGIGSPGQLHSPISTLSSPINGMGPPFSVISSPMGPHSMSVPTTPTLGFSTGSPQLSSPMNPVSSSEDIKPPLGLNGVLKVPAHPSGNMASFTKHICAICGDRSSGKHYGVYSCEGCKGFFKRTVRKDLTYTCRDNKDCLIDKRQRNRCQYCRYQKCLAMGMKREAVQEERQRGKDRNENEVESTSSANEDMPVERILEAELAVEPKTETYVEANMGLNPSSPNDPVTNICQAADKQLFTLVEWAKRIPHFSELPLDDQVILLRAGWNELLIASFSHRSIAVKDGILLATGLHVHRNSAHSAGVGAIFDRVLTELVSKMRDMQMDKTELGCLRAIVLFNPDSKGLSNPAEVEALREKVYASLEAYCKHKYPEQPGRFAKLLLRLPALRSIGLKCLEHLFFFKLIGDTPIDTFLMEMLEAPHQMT
Procedure, shortened: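 Activity is expressed as percent, where vehicle gives 0% and 1 μM compound X gives 100%, based on luciferase luminescence. Reporter CHO-K1 cells co-expressing PPARγ:RXRα with a 4ERPP-driven luciferase were incubated with test compound for one day at 37 °C in medium with 0.1% fatty acid-free BSA.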

[2] = target: T2, human AT1 receptor (Homo sapiens, UniProt P30556); assay: Binding assay using human AT1 receptor-expressing CHO-K1 cell membrane fraction ([125I]-angiotensin II); details: 22.5 pM [125I]-angiotensin II, 9 μg AT1 membrane, 1 hr room temperature; read-out: AT1 receptor binding inhibitory action (IC50 (nM))
T2 construct: expressed in transfected cells; host or cells: CHO-K1
T2 sequence (P30556 1-359): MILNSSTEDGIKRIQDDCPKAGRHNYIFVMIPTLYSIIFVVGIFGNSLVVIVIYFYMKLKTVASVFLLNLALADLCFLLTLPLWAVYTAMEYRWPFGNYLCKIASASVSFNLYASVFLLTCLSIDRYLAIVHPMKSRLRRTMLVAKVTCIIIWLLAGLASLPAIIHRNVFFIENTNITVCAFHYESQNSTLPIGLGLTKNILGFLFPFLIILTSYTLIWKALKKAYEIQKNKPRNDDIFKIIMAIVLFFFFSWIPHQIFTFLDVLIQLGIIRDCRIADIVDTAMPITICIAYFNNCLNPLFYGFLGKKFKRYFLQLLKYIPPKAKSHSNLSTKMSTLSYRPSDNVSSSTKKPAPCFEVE
Procedure, shortened: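 Radioligand displacement: test compound competed with [125I]-angiotensin II (22.5 pM) on stable CHO-K1 AT1 membrane fraction, 1 hr, room temperature, Tris pH 7.4/MgCl2 buffer ± 0.3 mg/mL BSA. Filtration then scintillation counting; 1 μM CV-11974 defined nonspecific binding. Values are IC50s.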

Row | Compound | activation at 1 µM [1] [%] | IC50 [2] [nM]
1 | CCCc1nc(C)n(-c2ccc3c(c2)CC(C)(C)O3)c(=O)c1Cc1ccc(-c2ccccc2-c2noc(=O)[nH]2)cc1Cl [Example 397, 5-{[3-chloro-2′-(5-oxo-4,5-dihydro-1,2,4-oxadiazol-3-yl)biphenyl-4-yl]methyl}-3-(2,2-dimethyl-2,.3-dihydro-1-benzofuran-5-yl)-2-methyl-6-propylpyrimidin-4(3H)-one] | 48.6 | 2.1
2 | CCCc1nc(C)n(-c2ccc3c(c2)CC(C)O3)c(=O)c1Cc1ccc(-c2ccccc2-c2noc(=O)[nH]2)cc1 (stereo not drawn) [Example 235, 2-methyl-3-(2-methyl-2,3-dihydro-1-benzofuran-5-yl)-5-{[2′-(5-oxo-4,5-dihydro-1,2,4-oxadiazol-3-yl)biphenyl-4-yl]methyl}-6-propylpyrimidin-4(3H)-one] | 27.6 | 1.5
3 | CCCCc1nc(C)n(-c2ccc(OC(C)(C)COC)cc2)c(=O)c1Cc1ccc(-c2ccccc2-c2noc(=O)[nH]2)cc1 [Example 427, 6-butyl-3-[4-(2-methoxy-1,1-dimethylethoxy)phenyl]-2-methyl-5-{[2′-(5-oxo-4,5-dihydro-1,2,4-oxadiazol-3-yl)biphenyl-4-yl]methyl}pyrimidin-4(3H)-one] | 17.7 | 1.4
4 | CCCc1nc(C)n(-c2ccc(OC3CCCC(=O)CC3)cc2)c(=O)c1Cc1ccc(-c2ccccc2-c2noc(=O)[nH]2)cc1 (stereo not drawn) [Example 437, 2-methyl-3-{4-[(4-oxocycloheptyl)oxy]phenyl}-5-{[2′-(5-oxo-4,5-dihydro-1,2,4-oxadiazol-3-yl)biphenyl-4-yl]methyl}-6-propylpyrimidin-4(3H)-one] | 18.1 | 1
5 | CCCCc1nc(C)n(-c2ccoc2)c(=O)c1Cc1ccc(-c2ccccc2-c2noc(=O)[nH]2)cc1 [Example 206, 6-butyl-3-(3-furyl)-2-methyl-5-{[2′-(5-oxo-4,5-dihydro-1,2,4-oxadiazol-3-yl)biphenyl-4-yl]methyl}pyrimidin-4(3H)-one] | 21.8 | 2
6 | CCCCc1nc(C)n(CC2CCCCC2)c(=O)c1Cc1ccc(-c2ccccc2-c2noc(=O)[nH]2)cc1 [Example 48, 6-butyl-3-(cyclohexylmethyl)-2-methyl-5-{[2′-(5-oxo-4,5-dihydro-1,2,4-oxadiazol-3-yl)biphenyl-4-yl]methyl}pyrimidin-4(3H)-one] | 68.8 | 1.8
7 | CCCCc1nc(C2CC2)c(-c2ccc(OC(C)(C)CO)cc2)c(=O)n1Cc1ccc(-c2ccccc2-c2noc(O)n2)cc1 [Example 510, 2-butyl-6-cyclopropyl-5-[4-(2-hydroxy-1,1-dimethylethoxy)phenyl]-3-{[2′-(5-oxo-4,5-dihydro-1,2,4-oxadiazol-3-yl)biphenyl-4-yl]methyl}pyrimidin-4(3H)-one] | 24.4 | 2.3
8 | CCCc1nc(CC)c(Oc2cc(F)ccc2F)c(=O)n1Cc1ccc(-c2ccccc2-c2noc(=O)[nH]2)cc1 [Example 484, 5-(2,5-difluorophenoxy)-6-ethyl-3-{[2′-(5-oxo-4,5-dihydro-1,2,4-oxadiazol-3-yl)biphenyl-4-yl]methyl}-2-propylpyrimidin-4(3H)-one] | 19.4 | 2.3
9 | CCCc1nc(C)n(-c2ccc(OC3CCCC3)cc2)c(=O)c1Cc1ccc(-c2ccccc2-c2noc(=O)[nH]2)cc1 [Example 319, 3-[4-(cyclopentyloxy)phenyl]-2-methyl-5-{[2′-(5-oxo-4,5-dihydro-1,2,4-oxadiazol-3-yl)biphenyl-4-yl]methyl}-6-propylpyrimidin-4(3H)-one] | 17.2 | 1.8
10 | CCCc1nc(CC)n(-c2ccc(OC(C)(C)C(C)O)cc2)c(=O)c1Cc1ccc(-c2ccccc2-c2noc(=O)[nH]2)cc1 (stereo not drawn) [Example 444, 2-ethyl-3-[4-(2-hydroxy-1,1-dimethylpropoxy)phenyl]-5-{[2′-(5-oxo-4,5-dihydro-1,2,4-oxadiazol-3-yl)biphenyl-4-yl]methyl}-6-propylpyrimidin-4(3H)-one] | 55.4 | 1.3
11 | CCCc1nc(CC)c(-c2ccc(OCC3CC3)nc2)c(=O)n1Cc1ccc(-c2ccccc2-c2noc(=O)[nH]2)cc1 [Example 500, 5-[6-(cyclopropylmethoxy)pyridin-3-yl]-6-ethyl-3-{[2′-(5-oxo-4,5-dihydro-1,2,4-oxadiazol-3-yl)biphenyl-4-yl]methyl}-2-propylpyrimidin-4(3H)-one] | 35.9 | 2.7
12 | CCCc1nc(CC)n(-c2ccc(OC(C)(C)C)cc2)c(=O)c1Cc1ccc(-c2ccccc2-c2noc(=O)[nH]2)cc1 [Example 364, 3-(4-tert-butoxyphenyl)-2-ethyl-5-{[2′-(5-oxo-4,5-dihydro-1,2,4-oxadiazol-3-yl)biphenyl-4-yl]methyl}-6-propylpyrimidin-4(3H)-one] | 32.6 | 1.9
13 | CCCOc1ccc(-c2c(CC)nc(CCC)n(Cc3ccc(-c4ccccc4-c4noc(=O)[nH]4)cc3)c2=O)cc1 [Example 459, 6-ethyl-3-{[2′-(5-oxo-4,5-dihydro-1,2,4-oxadiazol-3-yl)biphenyl-4-yl]methyl}-5-(4-propoxyphenyl)-2-propylpyrimidin-4(3H)-one] | 40 | 2.1
14 | CCCCc1nc(C)n(-c2ccc(OCC)cc2)c(=O)c1Cc1ccc(-c2ccccc2-c2noc(=O)[nH]2)cc1 [Example 222, 6-butyl-3-(4-ethoxyphenyl)-2-methyl-5-{[2′-(5-oxo-4,5-dihydro-1,2,4-oxadiazol-3-yl)biphenyl-4-yl]methyl}pyrimidin-4(3H)-one] | 29.3 | 1.3
15 | CCCc1nc(C)n(-c2ccc(OC(C)C)cc2)c(=O)c1Cc1ccc(-c2ccccc2-c2noc(O)n2)cc1 [Example 88, 3-(4-isopropoxyphenyl)-2-methyl-5-{[2′-(5-oxo-4,5-dihydro-1,2,4-oxadiazol-3-yl)biphenyl-4-yl]methyl}-6-propylpyrimidin-4(3H)-one] | 31.2 | 1.7
16 | C#CCC(C)Oc1ccc(-n2c(C)nc(CCC)c(Cc3ccc(-c4ccccc4-c4noc(=O)[nH]4)cc3)c2=O)cc1 (stereo not drawn) [Example 324, 2-methyl-3-{4-[(1-methylbut-3-yn-1-yl)oxy]phenyl}-5-{[2′-(5-oxo-4,5-dihydro-1,2,4-oxadiazol-3-yl)biphenyl-4-yl]methyl}-6-propylpyrimidin-4(3H)-one] | 45.2 | 1.7
17 | CCCCc1nc(C)n(Cc2ccc(OC)nc2)c(=O)c1Cc1ccc(-c2ccccc2-c2noc(=O)[nH]2)cc1 [Example 71, 6-butyl-3-[(6-methoxypyridin-3-yl)methyl]-2-methyl-5-{[2′-(5-oxo-4,5-dihydro-1,2,4-oxadiazol-3-yl)biphenyl-4-yl]methyl}pyrimidin-4(3H)-one] | 46.3 | 1.8
18 | CCCc1ncn(-c2ccc3c(c2)CC(C)(C)O3)c(=O)c1Cc1ccc(-c2ccccc2-c2noc(=O)[nH]2)cc1 [Example 178, 3-(2,2-dimethyl-2,3-dihydro-1-benzofuran-5-yl)-5-{[2′-(5-oxo-4,5-dihydro-1,2,4-oxadiazol-3-yl)biphenyl-4-yl]methyl}-6-propylpyrimidin-4(3H)-one] | 37.5 | 2.6
